US20030232801A1, “Identification of compounds for the treatment or prevention of proliferative diseases” (priority 2001, published 2003)
pIC50: −log10 of the molar value.

Tests used:
[1] = tested on: MT-4 cells (adult human T-cell leukemia cells); experiment: Cellular toxicity, MTS cell viability, MT-4 cells; format: cell-based; conditions: for pIC50: 5 day, MTS viability
Protocol: (§1) 6D-2 cells (MCF-7 human breast cancer cells stably transfected with luciferase linked to the 5′ and 3′UTRs of human HER2) were added to 96-well plates at 7500 cells per well in 200 μL medium and incubated for 24 hours at 100% humidity, 5% CO2, and 37° C. Compounds were diluted from DMSO stock solutions into medium and were added at various concentrations. The 6D-2 cells were incubated for 16 hours at which time the volume of medium in each well was reduced to 100 μL using a plate washer. 20 μL of MTS cell viability reagent (Promega, Madison, Wis.) was then added to each well, and the plates were incubated for 1-4 hours. A plate containing wells with 100 μL medium plus MTS reagent was prepared to determine the background reading. The plates were read on the Wallac 2 plate reader (PerkinElmer Life Science, Boston, Mass.) at 490 nm. Percent viability was calculated as (O.D. of compound treated cells−background O.D.)/(O.D. of DMSO treated cells−background O.D.)×100. MT-4 cells (adult human T-cell leukemia cells) were plated at 1.5×10^5 cells per well in 200 μL medium and incubated for at least one hour before the addition of compounds. The cells were incubated for 5 days at 100% humidity, 5% CO2, and 37° C. Cell viability was determined as described for 6D-2 cells.
(§2) Compounds of the invention containing a pyrrolidine substituent were tested for toxicity to cancerous and non-cancerous cells. 6D-2 cellular activity is representative of potency as an antitumor agent. MT-4 cellular activity is representative of general toxicity. A high IC50 for MT-4 cells and a low IC50 for 6D-2 cells is indicative of a compound of potential therapeutic use in treating or preventing proliferative diseases, such as cancer.

[2] = tested on: 6D-2 cells (MCF-7 human breast cancer cells stably transfected with luciferase linked to the 5′ and 3′UTRs of human HER2); experiment: Cellular toxicity, MTS cell viability, 6D-2 cells; format: cell-based; conditions: for pIC50: MTS viability
Protocol: as §1, §2

[3] = Cellular toxicity, MTS cell viability, 6D-2 cells; format: cell-based, human; conditions: Homo sapiens, MCF7, MTS viability
Protocol: as §1, §2

Question: With CC(=O)Nc1ccc(NC2=C(N3CCCC3)C(=O)c3cnccc3C2=O)cc1 [Example 3A, 6-(N′-4-aminoacetanilide)-7-pyrrolidino-5,8-isoquinolinedione] as the compound, how does the pIC50 [1] read?
Answer: Its pIC50 is 5.29.

Question: And the pIC50 [2]?
Answer: The pIC50 was 6.43.

Question: Which results are given for CC(=O)Nc1ccc(NC2=C(N3CCCC3)C(=O)c3ccncc3C2=O)cc1 [Example 3B, 7-(N′-4-aminoacetanilide)-6-pyrrolidino-5,8-isoquinolinedione]?
Answer: pIC50 [1]: 5.17; pIC50 [2]: 5.39

Question: Which results are given for O=C1C(Nc2ccc(F)cc2)=C(N2CCCC2)C(=O)c2cnccc21 [Example 4, 6-(N′-4-fluoroanilino)-7-pyrrolidino-5,8-isoquinolinedione]?
Answer: pIC50 [1]: 5.60; pIC50 [2]: 5.83

Question: What does the source list for O=C1C(Nc2ccc(F)cc2)=C(N2CCCC2)C(=O)c2ncccc21 [Example 5, 6-(N-4-fluoroanilino)-7-pyrrolidino-5,8-quinolinedione]?
Answer: pIC50 [1]: 5.17; pIC50 [2]: 6.11

Question: What does the source list for CC(C)(C)OC(=O)Nc1ccc(NC2=C(N3CCCC3)C(=O)c3ccccc3C2=O)cc1 [Example 6, N-4-((3-pyrrolidino-1,4-naphthalenedion-2-yl)amino)phenyl-O-1.1-dimethylethylcarbamate]?
Answer: pIC50 [1]: 5.56; pIC50 [2]: 6.24

Question: With Nc1ccc(NC2=C(N3CCCC3)C(=O)c3ccccc3C2=O)cc1 [Example 7, 2-(N-4-aminoanilino)-3-pyrrolidino-1,4-naphthoquinone] as the compound, how does the pIC50 [1] read?
Answer: Its pIC50 is 6.80.

Question: What about the pIC50 [2] of the same compound?
Answer: Its pIC50 is 7.15.

Question: With COc1ccc(NC2=C(N3CCCC3)C(=O)c3ccccc3C2=O)cn1 [Example 8, 2-(N-2-methoxy-5-aminopyridine)-3-pyrrolidino-1,4-naphthoquinone] as the compound, how does the pIC50 [1] read?
Answer: The pIC50 was 5.95.

Question: What about the pIC50 [2] of the same compound?
Answer: Its pIC50 is 6.92.

Question: With COc1ccc(NC2=C(N3CCCC3)C(=O)c3ccccc3C2=O)cc1 [Example 9, 2-(N-4-methoxyanilino)-3-pyrrolidino-1,4-naphthoquinone] as the compound, how does the pIC50 [1] read?
Answer: Its pIC50 is 6.28.

Question: And the pIC50 [2]?
Answer: The pIC50 was 7.00.

Question: What does the source list for Cc1cc(=O)oc2cc(NC3=C(N4CCCC4)C(=O)c4ccccc4C3=O)ccc12 [Example 10, 7-((3-pyrrolidino-1,4-naphthalenedion-2-yl)amino)-4-methylcoumarin]?
Answer: pIC50 ([1]; Homo sapiens, MT4, 120 h): 5.93; pIC50 [3]: 5.17

Question: With CC(C)NC(=S)Nc1ccc(NC2=C(N3CCCC3)C(=O)c3ccccc3C2=O)cc1 [Example 11, N^1-4-((3-pyrrolidino-1,4-naphthalenedion-2-yl)amino)phenyl-N^2-(1-methylethyl)thiourea] as the compound, how does the pIC50 [1] read?
Answer: The pIC50 was 5.21.

Question: And the pIC50 [2]?
Answer: Its pIC50 is 6.48.

Question: With CNC(=S)Nc1ccc(NC2=C(N3CCCC3)C(=O)c3ccccc3C2=O)cc1 [Example 12, N^1-4-((3-pyrrolidino-1,4-naphthalenedion-2-yl)amino)phenyl-N^2-methylthiourea] as the compound, how does the pIC50 [1] read?
Answer: The pIC50 was 5.06.

Question: What about the pIC50 [2] of the same compound?
Answer: Its pIC50 is 7.00.

Question: Which “MT-4 5 day, percent @.10 μM” value [1] does the source give for NCC(=O)c1cccc(NC2=C(N3CCCC3)C(=O)c3ccccc3C2=O)c1 [Example 13, 2-(N-3-aminoacetylanilino)-3-pyrrolidino-1,4-naphthoquinone] here?
Answer: The value was 80% @.10 μM.

Question: And the “6D-2 24 hr, percent @.10 μM” value [2]?
Answer: The value was 70% @.10 μM.

Question: With O=C1C(Nc2ccccc2)=C(N2CCCC2)C(=O)c2ccccc21 [Example 14, 2-(N-anilino)-3-pyrrolidino-1,4-naphthoquinone] as the compound, how does the pIC50 [1] read?
Answer: Its pIC50 is 5.68.

Question: What about the pIC50 [2] of the same compound?
Answer: Its pIC50 is 6.12.

Question: With Nc1ccc(C(=O)N(C2=C(N3CCCC3)C(=O)c3ccccc3C2=O)c2ccccc2)cc1 [Example 15, 2-(N-4-aminobenzoylanilino)-3-pyrrolidino-1,4-naphthoquinone] as the compound, how does the pIC50 ([1]; Homo sapiens, MT4, 120 h) read?
Answer: Its pIC50 is 6.00.

Question: And the “6D-2 24 hr, percent @.10 μM” value [2]?
Answer: The value was 60% @.10 μM.

Question: Which “MT-4 5 day, percent @.10 μM” value [1] does the source give for O=C1C(Nc2cccc(F)c2)=C(N2CCCC2)C(=O)c2ccccc21 [Example 16, 2-(N-3-fluoroanilino)-3-pyrrolidino-1,4-naphthoquinone] here?
Answer: Its value is 68% @.10 μM.

Question: And the pIC50 [2]?
Answer: The pIC50 was 5.87.

Question: Which “MT-4 5 day, percent @.10 μM” value [1] does the source give for CN(C)C1=C(Nc2cccc(F)c2)C(=O)c2ccccc2C1=O [Example 17, 2-(N-3-fluoroanilino)-3-dimethylamino-1,4-naphthoquinone] here?
Answer: The value was 100% @.10 μM.

Question: What about the pIC50 [2] of the same compound?
Answer: Its pIC50 is 5.00.

Question: What does the source list for CC1CCCN1C1=C(Nc2ccc(F)cc2)C(=O)c2ccccc2C1=O (stereo not shown) [Example 18, 2-(N-4-fluoroanilino)-3-(2-methylpyrrolidino)-1,4-naphthoquinone]?
Answer: pIC50 [1]: 5.28; pIC50 [2]: 5.58

Question: For COC[C@@H]1CCCN1C1=C(Nc2ccc(F)cc2)C(=O)c2ccccc2C1=O [Example 19, 2-(N-4-fluoroanilino)-3-(2-(S)-methoxymethylpyrrolidino)-1,4-naphthoquinone], which “MT-4 5 day, percent @.10 μM” value [1] is on record?
Answer: Its value is 97% @.10 μM.

Question: What about the pIC50 [2] of the same compound?
Answer: Its pIC50 is 5.05.

Question: With O=C(Nc1ccc(NC2=C(N3CCCC3)C(=O)c3ccccc3C2=O)cc1)c1ccco1 [Example 20, 2-(4-(2-furanoylamino)phenylamino)-3-pyrrolidino-1,4-naphthoquinone] as the compound, how does the pIC50 ([1]; Homo sapiens, MT4, 120 h) read?
Answer: The pIC50 was 6.96.

Question: What about the pIC50 [3] of the same compound?
Answer: Its pIC50 is 7.22.

Question: With CC(C)OC(=O)Nc1ccc(NC2=C(N3CCCC3)C(=O)c3ccccc3C2=O)cc1 [Example 21, N-4-((3-pyrrolidino-1,4-naphthalenedion-2-yl)amino)phenyl-O-(1-methylethyl)carbamate] as the compound, how does the pIC50 [1] read?
Answer: The pIC50 was 5.70.

Question: And the pIC50 [2]?
Answer: Its pIC50 is 5.86.

Question: With COC(=O)Nc1ccc(NC2=C(N3CCCC3)C(=O)c3ccccc3C2=O)cc1 [Example 22, N-4-((3-pyrrolidino-1,4-naphthalenedion-2-yl)amino)phenyl-O-methylcarbamate] as the compound, how does the pIC50 [1] read?
Answer: Its pIC50 is 6.33.

Question: What about the pIC50 [2] of the same compound?
Answer: The pIC50 was 6.85.

Question: What does the source list for COC(=O)Nc1cccc(NC2=C(N3CCCC3)C(=O)c3ccccc3C2=O)c1 [Example 23, N-3-((3-pyrrolidino-1,4-naphthalenedion-2-yl)amino)phenyl-O-methylcarbamate]?
Answer: pIC50 [1]: 4.99; pIC50 [2]: 6.06

Question: With CC(C)NC(=O)Nc1ccc(NC2=C(N3CCCC3)C(=O)c3ccccc3C2=O)cc1 [Example 24, N′-4-((3-pyrrolidino-1,4-naphthalenedion-2-yl)amino)phenyl-N^2-(1-methylethyl)urea] as the compound, how does the pIC50 [1] read?
Answer: Its pIC50 is 5.77.

Question: What about the pIC50 [2] of the same compound?
Answer: The pIC50 was 6.74.

Question: With O=C(Nc1ccccc1)Nc1ccc(NC2=C(N3CCCC3)C(=O)c3ccccc3C2=O)cc1 [Example 25, N^1-4-((3-pyrrolidino-1,4-naphthalenedion-2-yl)amino)phenyl-N^2-phenylurea] as the compound, how does the pIC50 [1] read?
Answer: The pIC50 was 5.65.

Question: And the pIC50 [2]?
Answer: The pIC50 was 5.97.

Question: With CNC(=O)Nc1ccc(NC2=C(N3CCCC3)C(=O)c3ccccc3C2=O)cc1 [Example 26] as the compound, how does the pIC50 [1] read?
Answer: The pIC50 was 6.12.

Question: What about the pIC50 [2] of the same compound?
Answer: Its pIC50 is 6.96.

Question: With COCCNC(=O)Nc1ccc(NC2=C(N3CCCC3)C(=O)c3ccccc3C2=O)cc1 [Example 27, N′-4-((3-pyrrolidino-1,4-naphthalenedion-2-yl)amino)phenyl-N^2-(2-methoxyethyl)urea] as the compound, how does the pIC50 [1] read?
Answer: The pIC50 was 6.25.

Question: And the pIC50 [2]?
Answer: Its pIC50 is 6.68.

Question: Which results are given for NC(=O)Nc1ccc(NC2=C(N3CCCC3)C(=O)c3ccccc3C2=O)cc1 [Example 28, 2-(N-(4-carbamidoanilino))-3-pyrrolidino-1,4-naphthoquinone]?
Answer: MT-4 5 day, percent @ 10 μM [1]: 56% @ 10 μM; pIC50 [2]: 6.51

Question: With O=C1C(Nc2ccc(F)c(F)c2)=C(N2CCCC2)C(=O)c2ccccc21 [Example 29, 2-(N-3,4-difluoroanilino)-3-pyrrolidino-1,4-naphthoquinone] as the compound, how does the “MT-4 5 day, percent @ 10 μM” value [1] read?
Answer: The value was 40% @ 10 μM.

Question: What about the pIC50 [2] of the same compound?
Answer: The pIC50 was 5.63.

Question: With O=C1C(Nc2ccc(F)cc2)=C(N2CCCC2)C(=O)c2ccccc21 [Example 30, 2-(N-4-Fluoroanilino)-3-pyrrolidino-1,4-naphthoquinone] as the compound, how does the pIC50 [1] read?
Answer: The pIC50 was 5.35.

Question: What about the pIC50 [2] of the same compound?
Answer: The pIC50 was 6.28.

Question: With Nc1ccc2c(c1)C(=O)C(N1CCCC1)=C(Nc1ccc(F)c(F)c1)C2=O [Example 31, 6-Amino-2-(N-3,4-difluoroanilino)-3-pyrrolidino-1,4-naphthoquinone] as the compound, how does the pIC50 [1] read?
Answer: The pIC50 was 6.52.

Question: What about the pIC50 [2] of the same compound?
Answer: The pIC50 was 5.82.

Question: Which results are given for COC(=O)Nc1ccc2c(c1)C(=O)C(N1CCCC1)=C(Nc1ccc(F)c(F)c1)C2=O [Example 32, 6-[(methoxycarbonyl)amino]-2-(N-3,4-difluoroanilino)-3-pyrrolidino-1,4-naphthoquinone]?
Answer: pIC50 [1]: 5.15; pIC50 [2]: 5.40

Question: With O=C1C(Nc2ccc(F)c(F)c2)=C(N2CCCC2)C(=O)c2ccc([N+](=O)[O-])cc21 [Example 33, 7-Nitro-2-(N-3,4-difluoroanilino)-3-pyrrolidino-1,4-naphthoquinone] as the compound, how does the pIC50 [1] read?
Answer: Its pIC50 is 6.15.

Question: What about the pIC50 [2] of the same compound?
Answer: Its pIC50 is 6.00.
